{"source": "patent US7232837B2", "about": "“Stereoisomers with high affinity for adrenergic receptors” (McNeil-PPC, Inc., priority 1999, dated 2007)", "key": {"Swiss-Webster mice [1]": {"tested_on": "Swiss-Webster mice", "test": "Locomotor stimulant and depressant effects in mice", "settings": "i.p.", "experimental": "Male Swiss-Webster mice (HSD ND4, Harlan Sprague Dawley, Houston, Tex.) aged 2–3 months were used in these studies. Each dose group consisted of 8 mice. The mice were housed 2 to 4 per cage in 30.4×22.9×15.2 cm clear polycarbonate cages with food and water available ad libitum for at least one week prior to locomotor activity testing. The colony was maintained at 23±1° C., on a normal light-dark cycle beginning at 0700 hr. All testing took place during the light portion of the light-dark cycle.\nHorizontal (forward movement) locomotor activity was measured using a standardized, optical activity monitoring system [Model KXYZCM (16), Omnitech Electronics, Columbus, Ohio]. Activity was monitored in forty 40.5×40.5×30.5 cm clear acrylic chambers that where housed in sets of two within larger sound-attenuating chambers. A panel of 16 infrared beams and corresponding photodetectors were spaced 2 cm apart along the sides and 2.4 cm above the floor of each activity chamber. A 7.5-W incandescent light above each chamber provided dim illumination via a rheostat set to 20% of full scale. Fans provided an 80-dB ambient noise level within the chamber.\nTriprolidine HCl was obtained from Research Biochemicals International, (Natick, Mass.).\nLocomotor stimulant effects. […] (+)-Amphetamine was used as a positive control. The total horizontal distance traversed (cm) was recorded at 10 minute intervals for a 2-hour session. Separate groups of 8 mice were assigned to each dose or saline group, and dose-effect testing continued for each compound until maximal stimulant or depressant effects could be estimated. A separate control group was tested along with each compound.\nUsing TableCurve 2D v2.03 (Jandel Scientific), the mean average total distance traversed (cm/10 min) for that period was fit to a 3-parameter logistic peak function of log10 dose (with the constant set to the mean of the saline group), and the maximum effect estimated from the resulting curve. The […] (dose producing ½ maximal stimulant activity) was estimated from a linear regression against log10 dose of the ascending portion of the dose-effect curve. The stimulant efficacy was the peak effect of the compound (cm/10 min) as estimated from the logistic peak function, minus the mean control distance traveled (cm/10 min), and was expressed for each stimulant compound as a ratio to the stimulant efficacy determined for (+)-amphetamine.\nThe mean average total distance traversed (cm/10 min) for that period were fit to a linear function of log10 dose of the descending portion of the dose-effect curve. […] Efficacy was the ratio of maximal depressant effect to maximum possible depression for each compound (mean average total distance of the control group minus the lowest mean total distance, expressed as a ratio to the control group total distance).\n(§1) Statistical analysis. Time course data for each compound were considered in 2-way analyses of variance with dose as a between-group and time as a within-group factor. The dose-effect data were considered in 1-way analyses of variance, and planned individual comparisons were conduced between each dose and the saline control group. Interaction studies were considered in 2-way analyses of variance, with Pretreatment and Test dose as the factors."}, "Dog": {"tested_on": "Dog", "test": "Dosage which raised mean arterial pressure 10%, dog", "assay_type": "in vivo"}, "Rat": {"tested_on": "Rat", "test": "Dosage which raised mean arterial pressure 10%, rat", "assay_type": "in vivo"}, "Swiss-Webster mice [2]": {"tested_on": "Swiss-Webster mice", "test": "H1 receptor antagonist (triprolidine) interaction study, locomotor activity in mice", "settings": "mice pretreated with triprolidine 20 min before the test compound", "experimental": "H1 receptor antagonist interaction studies. […] The mice were immediately placed in the activity testing chamber for a 2-h session. Doses of the test compound were selected from the ascending or descending time of the dose-effect curve determined from the compound-alone studies. Eight mice were tested for each triprolidine/test compound combination.\nas §1"}, "[3]": {"tested_on": "New Zealand white rabbits", "test": "Intraocular pressure (IOP) after topical application to the rabbit eye", "assay_type": "in vivo", "settings": "mean ± S.E.", "experimental": "These diastereomers were administered topically as either 1% or 2% solutions in buffered saline. Pupillary diameter and IOP were measured in all animals over a six hour time period during the day to minimize diurnal variations in IOP and pupil diameter.\nThe experiments were performed on adult male New Zealand white rabbits weighing 3.0–6.0 kg. All rabbits were caged individually and maintained on a 12 hr/12 hr light/dark schedule with free access to food and water. All animal procedures were in conformity with the ARVO Resolution on the Use and Care of Animals in Research. All treated rabbits had served as controls by having received a saline treatment on a different day.\nOnly one eye received drug treatment. The contralateral eye served as a control. Saline (or PBS) and drug treated rabbits were treated and observed simultaneously. A single dose was given at time zero and IOP and pupil diameter measured at −1.0, −0.5, 0.5, 1, 3 and 5 hrs post-treatment.\nIOP measurements were recorded with an Alcon Applanation Pneumotonograph (Surgical Products Division, Alcon Laboratories, Inc., Ft. Worth, Tex.) in rabbits placed in Lucite restraining cages. Initial topical application of a two drop 0.5% proparacaine HCl (Ophthetic®, Allergan Pharmaceuticals, Inc.) was performed on each rabbit.\nMean and Standard Error values were used to construct time-response and dose-response curves for the treated and contralateral eye of research rabbits. The data were analyzed statistically by an analysis of variance and a Bonferoni's test for significance. P<0.05 was the accepted level of significance."}}, "data": [{"molecule": "CNC[C@H](O)c1cccc(O)c1", "note": "[(−)-Phenylephrine, (−)-phenylephrine]", "values": [{"measurement": "Depression Time: 30-min period following injection in which the maximal depression occurred", "setting": "Swiss-Webster mice [1]", "result": "0 to 30", "unit": "min"}, {"measurement": "Stimulation Time: 30-min period following injection in which the maximal stimulant effect occurred", "setting": "Swiss-Webster mice [1]", "result": "60 to 90", "unit": "min"}, {"measurement": "locomotor depressant effects, time course (result in words)", "setting": "Swiss-Webster mice [1]", "result": "dose-dependent locomotor depression within 10 to 20 minutes following injection"}, {"measurement": "Depression Potency: dose resulting in ½ the maximal depressant effect (ID50)", "setting": "Swiss-Webster mice [1]; — denotes absence of significant effect", "result": 2.3, "unit": "mg/kg"}, {"measurement": "Dosage of Enantiomer which raised mean arterial pressure 10%, Dog", "setting": "Dog", "result": 10, "unit": "µg/kg"}, {"measurement": "Dosage of Enantiomer which raised mean arterial pressure 10%, Rat", "setting": "Rat", "result": "3 to 5", "unit": "µg"}, {"measurement": "effect of triprolidine pretreatment on stimulant or depressant effects", "setting": "Swiss-Webster mice [2]", "result": "failed to show significant modification of stimulant or depressant effects"}, {"measurement": "IOP", "setting": "[3]; 1% topical, drug treated eye (T), 0.5 hr", "result": "24 ± 0.6", "unit": "mmHg"}, {"measurement": "IOP", "setting": "[3]; 1% topical, drug treated eye (T), 1 hr", "result": "24 ± 1.0", "unit": "mmHg"}, {"measurement": "IOP", "setting": "[3]; 1% topical, drug treated eye (T), 3 hr", "result": "23 ± 1.5", "unit": "mmHg"}, {"measurement": "IOP", "setting": "[3]; 1% topical, drug treated eye (T), 5 hr", "result": "21 ± 1.9", "unit": "mmHg"}, {"measurement": "IOP", "setting": "[3]; 1% topical, drug treated eye (T), −0.5 hr (pre-treatment)", "result": "16 ± 1.5", "unit": "mmHg"}, {"measurement": "IOP", "setting": "[3]; 1% topical, drug treated eye (T), −1 hr (pre-treatment)", "result": "20 ± 1.6", "unit": "mmHg"}, {"measurement": "IOP", "setting": "[3]; 1% topical, untreated contralateral eye (U), 0.5 hr", "result": "18 ± 1.6", "unit": "mmHg"}, {"measurement": "IOP", "setting": "[3]; 1% topical, untreated contralateral eye (U), 1 hr", "result": "19 ± 1.3", "unit": "mmHg"}, {"measurement": "IOP", "setting": "[3]; 1% topical, untreated contralateral eye (U), 3 hr", "result": "20 ± 1.9", "unit": "mmHg"}, {"measurement": "IOP", "setting": "[3]; 1% topical, untreated contralateral eye (U), 5 hr", "result": "19 ± 1.7", "unit": "mmHg"}, {"measurement": "IOP", "setting": "[3]; 1% topical, untreated contralateral eye (U), −0.5 hr (pre-treatment)", "result": "15 ± 2.1", "unit": "mmHg"}, {"measurement": "IOP", "setting": "[3]; 1% topical, untreated contralateral eye (U), −1 hr (pre-treatment)", "result": "16 ± 1.0", "unit": "mmHg"}, {"measurement": "IOP", "setting": "[3]; 2% topical, drug treated eye (T), 0.5 hr", "result": "12 ± 0.8", "unit": "mmHg"}, {"measurement": "IOP", "setting": "[3]; 2% topical, drug treated eye (T), 1 hr", "result": "14 ± 2.0", "unit": "mmHg"}, {"measurement": "IOP", "setting": "[3]; 2% topical, drug treated eye (T), 3 hr", "result": "16 ± 0.8", "unit": "mmHg"}, {"measurement": "IOP", "setting": "[3]; 2% topical, drug treated eye (T), 5 hr", "result": "14 ± 1.3", "unit": "mmHg"}, {"measurement": "IOP", "setting": "[3]; 2% topical, drug treated eye (T), −0.5 hr (pre-treatment)", "result": "15 ± 1.5", "unit": "mmHg"}, {"measurement": "IOP", "setting": "[3]; 2% topical, drug treated eye (T), −1 hr (pre-treatment)", "result": "18 ± 1.6", "unit": "mmHg"}, {"measurement": "IOP", "setting": "[3]; 2% topical, untreated contralateral eye (U), 0.5 hr", "result": "20 ± 2.0", "unit": "mmHg"}, {"measurement": "IOP", "setting": "[3]; 2% topical, untreated contralateral eye (U), 1 hr", "result": "20 ± 2.4", "unit": "mmHg"}, {"measurement": "IOP", "setting": "[3]; 2% topical, untreated contralateral eye (U), 3 hr", "result": "14 ± 1.7", "unit": "mmHg"}, {"measurement": "IOP", "setting": "[3]; 2% topical, untreated contralateral eye (U), 5 hr", "result": "14 ± 2.0", "unit": "mmHg"}, {"measurement": "IOP", "setting": "[3]; 2% topical, untreated contralateral eye (U), −0.5 hr (pre-treatment)", "result": "17 ± 1.9", "unit": "mmHg"}, {"measurement": "IOP", "setting": "[3]; 2% topical, untreated contralateral eye (U), −1 hr (pre-treatment)", "result": "17 ± 1.9", "unit": "mmHg"}]}]}
